Test results taken from US20220087983A1, “ACTIVATING PYRUVATE KINASE R” (FORMA Therapeutics, Inc., priority 2020, published 2022).
Where “and” joins values, the source holds several entries; their conditions need not be identical. Equal entries are not always repeated.

Legend:
[1] = Phase 1: hematologic and hemolytic parameters in SCD patients; format: in vivo, human; conditions: blinded 300 mg Compound 1/placebo QD, individual patients Pt 1-3
Text: Laboratory changes relative to pretreatment for each pt in the MD cohort as of Jul. In 2 of 3 SCD MD-1 pts treated with Compound 1/placebo (currently blinded), Hb increased by >1 g/dL, % reticulocytes decreased, and markers of hemolysis were improved after 14 days of treatment (compared to pre-treatment levels). Hematologic parameters returned to pre-treatment levels 4 to 7 days post-treatment (data not shown) without clinical AEs. […]

[2] = cited from earlier work

Compound | Hemoglobin ([1]; Day 7 (on Tx)) | Indirect Bilirubin ([1]; Day 7 (on Tx)) | Reticulocytes, % ([1]; Day 7 (on Tx)) | Hemoglobin ([1]; Day 14/15 (EOT)) | Indirect Bilirubin ([1]; Day 14/15 (EOT)) | Reticulocytes, % ([1]; Day 14/15 (EOT)) | steady state whole blood AUC higher in HbSC than HbSS genotype patients ([2]; HbSC n=11, HbSS n=220) [%] | steady state whole blood Cmax higher in HbSC than HbSS genotype patients ([2]; HbSC n=11, HbSS n=220) [%] | steady state plasma AUC higher in HbSC than HbSS genotype patients ([2]; human, in vivo) [%] | steady state plasma Cmax higher in HbSC than HbSS genotype patients ([2]; human, in vivo) [%] | increase of AUC in plasma with a high-fat, high-calorie meal ([2]; relative to fasted state) [%] | increase of AUC in whole blood with a high-fat, high-calorie meal ([2]; relative to fasted state) [%] | increase of Cmax in plasma with a high-fat, high-calorie meal ([2]; relative to fasted state) [%] | increase of Cmax in whole blood with a high-fat, high-calorie meal ([2]; relative to fasted state) [%]
O=C([C@H](CO)c1ccccc1)N1CC2=C(C1)CN(S(=O)(=O)c1cnc3c(c1)OCCO3)C2 [Compound 1/Placebo] | 7.9 g/dL and 8.8 g/dL | 2.5 mg/dL and 0.9 mg/dL and 0.8 mg/dL | 6.8% and 5.8% | 7.5 g/dL and 9.2 g/dL | 3.0 mg/dL and 0.8 mg/dL and 1.0 mg/dL | 0.8% and 4.2% |  |  |  |  |  |  |  | 
CC(C)n1nccc1-c1ncccc1COc1cccc(O)c1C=O [voxelotor, 2-hydroxy-6-((2-(1-isopropyl-1H-pyrazol-5-yl)pyridin-3-yl)methoxy)benzaldehyde] |  |  |  |  |  |  | 50 | 45 | 23 | 15 | 42 | 42 | 95 | 45
